Experimental data as given in patent publication EP0265400A2, “Topical radioprotective gel for mucosa” (priority 1986, dated 1988).
Values joined by “and” are separate entries in the source; they are usually repeats but may differ in a detail not shown here. Equal entries are not always repeated. “Also recorded” adds a separate entry of the source. Positions of bridges follow the written chain, without caps; N, C: chain ends. Residues, ends and D or L forms follow the SMILES beside them.

Assays:
[1] = Studies of systemic circulation (dose titration) after rectal application of the gel: arterial pressure and pulse rate; type: in vivo, Wistar rats
Description: The concentration of vasoconstrictive substance in the radioprotective gels according to the invention was determined according to the desire to provide a local vasoconstrictive effect (with subsequent hypoxia) in the mucosa, but without general secondary effect, such as blood pressure increase and bradycardia. To achieve this, dose titration studies of the different vasoconstrictive substances were carried out, i.e. the dose just below the threshold of general circulatory response was defined. Due to interaction (electrostatic binding) between the active substance and the different thickening agents, the dose for a specific vasoconstrictive substance varied depending upon the thickening agent employed.
For studies of systematic circulation, Wistar rats (body weight 177-296 g) were used. TGLVP was administered rectally by means of a Nelaton-Foley catheter inserted through the anus until the balloon was 5 cm away from the anus. The balloon was then filled to ensure that the catheter stayed in position and to prevent TGLVP from reaching the upper parts of the bowel. TGLVP was dissolved in a 1% by weight aqueous solution of sodium carboxymethyl cellulose (CMC) and was in contact with all parts of the mucosa during the test. The volume applied amounted to half a milliliter. Three dose levels of TGLVP were tested, i.e. 800 µg, 1600 µg and 3200 µg. For each dose level, use was made of five rats and a corresponding number of controls which were given CMC solution only. For anaesthesia, nembutal was used intraperitoneally. Mean values for arterial pressure and puls rate were recorded by means of a catheter in the aorta via the femoral artery.
Dose titration was carried out in a similar manner on AVP, LVP, TGLVP with other thickening agents, Angiotensin II and norepinephrine.

[2] = tested on: Irradiation-induced lesions in the mucosa; experiment: Radioprotective effect of rectally applied gel on irradiated rectal mucosa: histological grading and body weight; type: in vivo, Wistar rats; conditions: for Body weight change / Change of glandular structure / Fibrosis / Ulceration - abscessa development in crypts / Sum of parameters: one value per rat; for Sum of parameters: histological grading
Description: For studies of the radioprotective effect of TGLVP Wistar rats (body weight 187-394 g) were used and treated in pairs at the same time. In each pair, one rat was treated rectally with TGLVP, while the other rat, the control rat, was given CMC solution rectally. The gels were applied in the same manner as described above. For anaesthesia, nembutal was given intraperitoneally. The rats were irradiated with 240 kV X-rays (0.2 Cu filtration), using AP and PA fields in size 4 × 3 cm. This gave a uniform dose in the lower part of the abdomen corresponding to the position of the rectum. 10 Gy were given on day 1, and 10 Gy on day 4. The rats were killed 14 days after the treatment, and the rectum was removed for histological analysis. The rats were weighed before treatment and when they were killed. 10 rats were treated with 1600 µg TGLVP 15 min before irradiation (Tables IV and V) 5 rats were treated with 800 µg TGLVP 15 min before irradiation (Table V) 10 rats were given 1600 µg TGLVP 30 min before treatment (Table III) 5 rats were given 3200 µg TGLVP 15 min before treatment (Table I) 5 rats were given 3200 µg TGLVP 30 min before treatment (Table II)
Histological grading (sum of parameters) was performed in accordance with an evaluation system in which 0 is the normal structure and 6 indicates maximum change. Irradiation-induced lesions in the mucosa were determined arbitrarily by means of the following parameters: • 1: The extent of fibrosis in the mucosa and submucosa. • 2: The change of glandular structure in the mucosa. • 3: Ulcerations in the mucosa or abscesses in mucosal crypts.

[3] = TGLVP 3200 µg/g in 1 weight% carboxymethyl cellulose, dose 1600 µg, 30 min before irradiation
[4] = TGLVP 3200 µg/g in 1 weight% carboxymethyl cellulose, dose 1600 µg, 30 min before irradiation, grade 0-6
[5] = TGLVP 6400 µg/g in 1 weight% carboxymethyl cellulose, dose 3200 µg, 15 min before irradiation, grade 0-6
[6] = TGLVP 6400 µg/g in 1 weight% carboxymethyl cellulose, dose 3200 µg, 30 min before irradiation
[7] = TGLVP 6400 µg/g in 1 weight% carboxymethyl cellulose, dose 3200 µg, 30 min before irradiation, grade 0-6

NCCCC[C@H](NC(=O)[C@@H]1CCCN1C(=O)[C@@H]1CSSC[C@H](NC(=O)CNC(=O)CNC(=O)CN)C(=O)N[C@@H](Cc2ccc(O)cc2)C(=O)N[C@@H](Cc2ccccc2)C(=O)N[C@@H](CCC(N)=O)C(=O)N[C@@H](CC(N)=O)C(=O)N1)C(=O)NCC(N)=O [TGLVP, triglycyl-lysine-vasopressin] (H-GGGCYFQNCPKG-NH2; disulfide 4-9)
circulatory changes ([1]; 128 µg in 0.9% by weight hydroxypropyl cellulose solution): without changes
circulatory changes ([1]; 128 µg in 1.2% by weight hydroxyethyl cellulose solution): no circulatory changes
circulatory changes ([1]; 256 µg in 0.9% by weight hydroxypropyl cellulose solution): without changes
blood pressure ([1]; 256 µg in 1.2% by weight hydroxyethyl cellulose solution, at 75 and 90 minutes after application): gave a rise in blood pressure
pulse rate ([1]; 256 µg in 1.2% by weight hydroxyethyl cellulose solution, at 5 minutes after application): decrease in pulse rate
circulatory changes (pulse) ([1]; 512 µg in 0.9% by weight hydroxypropyl cellulose solution, 15-120 minutes after application): gave a bradycardia
pulse rate ([1]; 512 µg in 1.2% by weight hydroxyethyl cellulose solution, 10-45 minutes after application): bradycardia
blood pressure ([1]; 512 µg in 1.2% by weight hydroxyethyl cellulose solution, 30 and 45 minutes after application): gave a rise in blood pressure
systemic circulatory response in the form of blood pressure increase or lower pulse ([1]; 800 µg rectally in 1% by weight sodium carboxymethyl cellulose (CMC)): no systemic circulatory response
systemic circulatory response in the form of blood pressure increase or lower pulse ([1]; 1600 µg rectally in 1% by weight sodium carboxymethyl cellulose (CMC)): no systemic circulatory response; also recorded: without general circulatory responses
systemic circulatory response in the form of blood pressure increase or lower pulse ([1]; 3200 µg rectally in 1% by weight sodium carboxymethyl cellulose (CMC)): caused blood pressure increase in several animals
function of the gel in radioprotective experiments ([2]; 1600-6400 µg per g of 1% by weight carboxymethyl cellulose in sterile deionised water): found to function as intended
Body weight change [2, 3]: 14 g and 3 g and 18 g and 7 g and 5 g
Change of glandular structure [2, 4]: 2 (4×) and 4
Fibrosis [2, 4]: 4 (4×) and 2
Ulceration - abscessa development in crypts [2, 4]: 0 (3×) and 2 (2×)
Sum of parameters [2, 3]: 6 (4×) and 10
Fibrosis ([2]; TGLVP 6400 µg/g in 1 weight% carboxymethyl cellulose, dose 3200 µg rectally 15 min before irradiation (10 Gy day 1 and day 4), grade 0 normal, 6 maximum change, killed 14 days after treatment): 4 and 2 (4×)
Body weight change ([2]; TGLVP 6400 µg/g in 1 weight% carboxymethyl cellulose, dose 3200 µg, 15 min before irradiation, before treatment vs when killed): 9 g and 4 g and 7 g and 15 g and 12 g
Change of glandular structure [2, 5]: 4 and 2 (2×) and 0 (2×)
Ulceration - abscessa development in crypts [2, 5]: 4 and 2 and 0 (3×)
Sum of parameters ([2]; TGLVP 6400 µg/g in 1 weight% carboxymethyl cellulose, dose 3200 µg, 15 min before irradiation): 12 and 6 and 2 (2×) and 4
Body weight change [2, 6]: 24 g and 7 g and 13 g and -2 g and 38 g
Change of glandular structure [2, 7]: 0 (2×) and 4 and 2 (2×)
Fibrosis [2, 7]: 4
Ulceration - abscessa development in crypts [2, 7]: 0 (2×) and 4 and 2 (2×)
Sum of parameters [2, 6]: 4 and 12 and 6 (2×) and 8
radioprotective effect ([2]; dose of 1600 µg, rats): maximum radioprotective effect
radioprotection to the mucosa as compared with the controls ([2]; dose of 3200, 1600 or 800 µg, irradiation 15 or 30 min after administration, summary of Tables I-V): gave radioprotection to the mucosa
radioprotection: effect of higher dose or longer time ([2]; increase of dose from 1600 µg to 3200 µg, or of time from 15 to 30 min, compared with 1600 µg at 15 min, Tables I-IV): does not seem to give a better result
protection, from body weight values ([2]; increasing the dose from 800 µg to 1600 µg, 15 min before irradiation, Table V): improved protection

NC[C@H](O)c1ccc(O)c(O)c1 [norepinephrine]
function of the gel in radioprotective experiments ([2]; 2 mg per g of 0.6% by weight hydroxyethyl cellulose in sterile deionised water): found to function as intended
cases with radioprotection to the mucosa, as compared with the controls ([2]; dose of 1 mg, irradiation 15 min after administration, Table IX): 5 out of 6

Angiotensin II
function of the gel in radioprotective experiments ([2]; 250 µg per g of 0.6% by weight hydroxyethyl cellulose in sterile deionised water): found to function as intended
cases with radioprotection to the mucosa, as compared with the controls ([2]; dose of 125 µg, irradiation 15 min after administration, Table VIII): 5 out of 6

Angiotensin II (DRVYIHPF; Angiotensin-2; UniProt P01019 25-32, looked up)
changes in blood pressure or pulse rate ([1]; doses of 0.1 µg to 500 µg in 0.6% by weight hydroxyethyl cellulose solution, even at the highest dose level, 75 or 140 minutes of follow-up): no significant changes in blood pressure or pulse rate

arginine-vasopressin [AVP]
influence on blood pressure ([1]; 25 µg in 0.2% by weight carboxypolymethylene solution, pulse rate not measured): without any significant influence on blood pressure
influence on blood pressure ([1]; 50 µg in 0.2% by weight carboxypolymethylene solution, pulse rate not measured): without any significant influence on blood pressure
function of the gel in radioprotective experiments ([2]; 10 µg per g of 0.2% by weight carboxypolymethylene in sterile deionised water): found to function as intended
radioprotection to the mucosa as compared with the controls ([2]; dose of 10 µg, irradiation 10 min after administration, Table VI, histological grading only): gave radioprotection to the mucosa

lysine-vasopressin [LVP]
changes in systemic circulation ([1]; 4 µg in 1.2% by weight hydroxyethyl cellulose solution): without significant changes in systemic circulation
changes in systemic circulation ([1]; 8 µg in 1.2% by weight hydroxyethyl cellulose solution): without significant changes in systemic circulation
change in blood pressure ([1]; 10 µg in 0.2% by weight carboxypolymethylene solution, pulse rate not measured): without any significant change in blood pressure
change in blood pressure ([1]; 10 µg in 1% by weight sodiumcarboxymethyl cellulose (CMC) solution, pulse rate not measured): without any change in blood pressure
changes in systemic circulation ([1]; 16 µg in 1.2% by weight hydroxyethyl cellulose solution): without significant changes in systemic circulation; also recorded: caused no significant change in systemic circulation
change in blood pressure ([1]; 20 µg in 0.2% by weight carboxypolymethylene solution, pulse rate not measured): without any significant change in blood pressure
change in blood pressure ([1]; 20 µg in 1% by weight sodiumcarboxymethyl cellulose (CMC) solution, pulse rate not measured): without any change in blood pressure
pulse rate ([1]; 32 µg in 1.2% by weight hydroxyethyl cellulose solution): No decrease in pulse rate was noted
blood pressure ([1]; 32 µg in 1.2% by weight hydroxyethyl cellulose solution, 5, 10, 15, 20, 25, 30, 45, 75 and 90 minutes after application): caused a rise in blood pressure
change in blood pressure ([1]; 40 µg in 0.2% by weight carboxypolymethylene solution, significant at 10, 15, 20, 25, 45 and 60 minutes after application): gave a rise in blood pressure
change in blood pressure ([1]; 40 µg in 1% by weight sodiumcarboxymethyl cellulose (CMC) solution, pulse rate not measured): without any change in blood pressure
change in blood pressure ([1]; 80 µg in 0.2% by weight carboxypolymethylene solution, significant 5-60 minutes after application): gave a rise in blood pressure
change in blood pressure ([1]; 80 µg in 1% by weight sodiumcarboxymethyl cellulose (CMC) solution, 5-45 minutes after application): caused a rise in blood pressure
function of the gel in radioprotective experiments ([2]; 32 µg per g of 1.2% by weight hydroxyethyl cellulose in sterile deionised water): found to function as intended
radioprotection to the mucosa ([2]; dose of 16 µg, irradiation 15 min after administration, Table VII): gave radioprotection to the mucosa
